“And” between values parts separate entries of the source, which are not always exact repeats. Equal values may be shown once.
How the values were obtained:
[1] = tested on: CV-1P (African monkey green kidney fibroblasts cells); assay: In vitro transfection of plasmid DNA, β-galactosidase activity per well; type: cell-based; settings: CVI-P; for transfection, result in words: entry spans the charge ratios 8-0.5
Method: Transfer of plasmid DNA by various compounds was investigated by using CV-1P (African monkey green kidney fibroblasts cells) and D407 (human retinal pigment epithelial) cells.
The cells were cultured in Dulbecco's modified Eagle's medium (DMEM, Gibco), supplemented with 10% fetal bovine serum (FBS), penicillin/streptomycin (100 units/ml and 100 μg/ml respectively) and 2 mM L-glutamine for D 407 cell line. Cell cultures were maintained at 37° C. in a 7% CO2/air incubator. The cells were collected, counted and seeded in growth medium (100 μl) into 96-well culture plate, 20 000 cells per well. One day later the medium was replaced with fresh medium without serum (150 μl)
In the case of confluent CV1-P cells the medium (with of without serum) was changed on fourth day of cell growth before the transfection.
The complexes at different derivative/DNA charge ratios for transfection procedure were prepared just before use in 50 mM MES—50 mM HEPES—75 mM NaCl buffer, pH 7.2 in separate 96 well plates. One hour after changing the serum-free medium with 10% serum the complexes were added to the cells at […]. Dose of DNA per well was 0.6 μg. After 5 h the complexes were removed, the cells were washed with PBS, and the normal growth medium was added. After 45 h of incubation at 37° C. the cells were lysed with 2% Triton X 100, twice deep frozen and the β-galactosidase activity in each well was determined spectrofotometrically with ELx800 automated microplate reader (Bio-Tex Instruments Inc., Winooski, Vt. USA) by monitoring the hydrolysis of o-nitrophenylgalactopyranoside (oNPG) at 405 nm. Purified β-galactosidase from E.coli was used to construct a standard curve and to calculate […] activity in the transfected cells. […] Transfection efficiencies are given as percentage in comparison to transfection efficiency of Lipofectin^R.

[2] = tested on: plasmid DNA; assay: DNA condensation/complexation, EtBr displacement assay; type: binding
Method: The ability of the cationic amphiphiles to condense DNA was assessed with an EtBr displacement assay. Briefly, in 96 well plates plasmid DNA (0.6 μg per well) was reacted with 0.002% EtBr in 20 mM HEPES—150 mM NaCl buffer, pH 7.4 and fluorescence intensity was measured at 530 nm (excitation) and 590 nm (emission). Intercalation of EtBr molecules between the base pairs of the DNA double helix results in increased fluorescence signal. Immediately thereafter, the cationic liposomes were added to form complexes at different +/−charge ratios and the quenching of fluorescence intensity of EtBr was monitored. Condensation of DNA upon complexation with liposomes results in the displacement of EtBr from DNA and in decreased fluorescence signal. Fluorescence was measured using FL 500 microplate fluorescence reader (Bio-Tek Instruments Inc., Winooski, Vt., USA).
The values are expressed as percentage of the maximum fluorescence signal when EtBr bound to DNA in the absence of an amphiphile. Each data point is from at least triplicate experiment ±S.D.

[3] = tested on: CVI-P cells; assay: Cytotoxicity of amphiphile/DNA complexes, percentage of survived cells
[4] = amphiphile/DNA +/− charge ratio 0.5
[5] = amphiphile/DNA +/− charge ratio 1
[6] = amphiphile/DNA +/− charge ratio 2
[7] = amphiphile/DNA +/− charge ratio 4
[8] = amphiphile/DNA +/− charge ratio 8

SMILES	transfection, result in words [1]	complexation, percentage of the maximum fluorescence signal when EtBr bound to DNA in the absence of an amphiphile [2, 4]	complexation, percentage of the maximum fluorescence signal when EtBr bound to DNA in the absence of an amphiphile [2, 5]	complexation, percentage of the maximum fluorescence signal when EtBr bound to DNA in the absence of an amphiphile [2, 6]	complexation, percentage of the maximum fluorescence signal when EtBr bound to DNA in the absence of an amphiphile [2, 7]	complexation, percentage of the maximum fluorescence signal when EtBr bound to DNA in the absence of an amphiphile [2, 8]	cytotoxicity as a percentage of survived cells [3, 4]	cytotoxicity as a percentage of survived cells [3, 5]	cytotoxicity as a percentage of survived cells [3, 6]	cytotoxicity as a percentage of survived cells [3, 7]	cytotoxicity as a percentage of survived cells [3, 8]	transfection efficiency [1, 4]	transfection efficiency [1, 5]	transfection efficiency [1, 6]	transfection efficiency [1, 7]	transfection efficiency [1, 8]	DNA condensing capacity (mark in Table 2) [2]
CCCCCCCCCCCCCCCC(=O)OCC(COC(=O)C1=C(C)NC(C)=C(C(=O)OCC(COC(=O)CCCCCCCCCCCCCCC)OC(=O)CCCCCCCCCCCCCCC)C1c1ccc[n+](C)c1)OC(=O)CCCCCCCCCCCCCCC.I.[I-] (stereo not drawn) [IX, 3′,5′-Bis [(2,3-dipalmitoyloxypropoxy)carbonyl]-1′,4′-dihydro-1,2′,6′-trimethyl-3,4′-bipyridinium iodide]	No signal	101,6% and 97,8%	101,6% and 97,5%	103,3% and 97,5%	97,8% and 98,4%	98,5% and 106,1%	83,11% and 90,48%	84,63% and 107,13%	97,34% and 120,34%	106,62% and 117,42%	100,65% and 124,54%	–	–	–	–	–	–
CCCCCCCCCCOC(=O)C1=C(C[N+](C)(C)CCCCCCCC)NC(C[N+](C)(C)CCCCCCCC)=C(C(=O)OCCCCCCCCCC)C1c1ccccc1.[Br-].[Br-] [XXVII, N,N′-{[3,5-Bis(decyloxycarbonyl)-1,4-dihydro-4-phenyl-pyridine-2,6-diyl]dimethylene}-N,N,N′,N′-tetramethyl-N,N′-dioctyldiammonium dibromide]	–	–	–	–	–	–	105,03%	98,37%	88,41%	24,62%	13,46%	0,24 β-galactosidase units per well	1,63 β-galactosidase units per well	36,55 β-galactosidase units per well	21,46 β-galactosidase units per well	3,14 β-galactosidase units per well	23a/XXVII*
Br.CCCCCCCCCCCCCCOC(=O)C1=C(C)NC(C)=C(C(=O)OCCCCCCCCCCCCCC)C1c1ccc[n+](CCCC)c1.[Br-] [XXI, 1-Butyl-1′,4′-dihydro-2′,6′-dimethyl-3′,5′-bis(tetradecyloxycarbonyl)-3,4′-bipyridinium bromide]	No signal	–	–	–	–	–	–	–	–	–	–	–	–	–	–	–	–
CCCCCCCCCCCCCCCCOCCCOC(=O)C1=C(C)NC(C)=C(C(=O)OCCCOCCCCCCCCCCCCCCCC)C1c1ccc[n+](C)c1.[I-] [II]	No signal	92,2%	85,6%	77,2%	74,8%	72,4%	111,42%	101,24%	102,9%	79,08%	99,23%	–	–	–	–	–	–
CCCCCCCCC=CCCCCCCCCOC(=O)C1=C(C[n+]2ccccc2)NC(C[n+]2ccccc2)=C(C(=O)OCCCCCCCCC=CCCCCCCCC)C1c1ccccc1.[Br-].[Br-] (stereo not drawn) [XXVI, 1,1′-[(3,5-Dioctadec-9′-enyloxycarbonyl-4-phenyl-1,4-dihydropyridine-2,6-diyl)dimethylene]bispyridinium dibromide]	No signal	–	–	–	–	–	–	–	–	–	–	–	–	–	–	–	–
CCCCCCCCCOC(=O)C1=C(C)NC(C)=C(C(=O)OCCCCCCCCC)C1c1ccc[n+](C)c1.I.[I-] [IV, 1′,4′-Dihydro-1,2′,6′-trimethyl-3′,5′-bis(nonyloxycarbonyl)-3,4′-bipyridinium iodide]	No signal	–	–	–	–	–	–	–	–	–	–	–	–	–	–	–	–

— patent US20030064954A1, “Cationic amphiphilic 1,4-dihydropyridine derivatives useful for delivery of nucleotide containing compounds” (priority 2000, published 2003)
